Test results taken from PubChem BioAssay (NCI).
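Step 1: Grow cells in 96-well plates. Step 2: Expose to compound for 48 hours at 5 concentrations. Step 3: Interpolate endpoints linearly; if unreached, use highest concentration. GI50: concentration for 50% inhibition of growth. TGI denotes the concentration required for complete inhibition of growth.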

Columns and labels:
Test in all cases: NCI anticancer screen, dose series, 48 h
[1] = test system: K-562 leukemia
[2] = test system: IGROV1 ovarian
[3] = test system: SK-MEL-2 melanoma
[4] = test system: CCRF-CEM leukemia
[5] = test system: T-47D breast
[6] = test system: MCF7 breast
[7] = test system: SNB-75 CNS
[8] = test system: MOLT-4 leukemia
[9] = test system: U251 CNS
[10] = test system: LOX IMVI melanoma
[11] = test system: CAKI-1 renal
[12] = test system: NCI-H226 lung
[13] = test system: ACHN renal
[14] = test system: SF-539 CNS
[15] = test system: DU-145 prostate
[16] = test system: SK-MEL-5 melanoma
[17] = test system: HCC-2998 colon
[18] = test system: SR leukemia
[19] = test system: HCT-15 colon
[20] = test system: UACC-62 melanoma
[21] = test system: HS 578T breast
[22] = test system: RXF 393 renal
[23] = test system: SK-MEL-28 melanoma
[24] = test system: OVCAR-4 ovarian
[25] = test system: NCI-H522 lung
[26] = test system: HOP-62 NSCLC
[27] = test system: HL-60(TB) leukemia
[28] = test system: NCI-H460 lung
[29] = test system: A549 NSCLC
[30] = test system: KM12 colon
[31] = test system: TK-10 renal
[32] = test system: HOP-92 NSCLC
[33] = test system: UACC-257 melanoma
[34] = test system: MDA-MB-435
[35] = test system: RPMI-8226 leukemia
[36] = test system: COLO 205 colon
[37] = test system: SF-268 CNS
[38] = test system: A498 renal
[39] = test system: HT29 colon
[40] = test system: MDA-MB-231 breast
[41] = test system: SK-OV-3 ovarian
[42] = test system: SN12C renal
[43] = test system: 786-0 renal
[44] = test system: BT-549 breast
[45] = test system: OVCAR-8 ovarian
[46] = test system: NCI/ADR-RES ovarian
[47] = test system: OVCAR-5 ovarian
[48] = test system: MALME-3M melanoma
[49] = test system: SNB-19 CNS
[50] = test system: EKVX NSCLC
[51] = test system: NCI-H23 lung
[52] = test system: OVCAR-3 ovarian
[53] = test system: PC-3 prostate
[54] = test system: M14 melanoma
[55] = test system: HCT-116 colon
[56] = test system: SW-620 colon
[57] = test system: SF-295 CNS

## COc1ccc2c(c1)C(=O)c1c-2c(=O)n(CCCCCCC(=O)NO)c2ccccc12
[1]
  GI50: 260 nM
  TGI: > 100 µM
[2]
  GI50: 732 nM
  TGI: 12.2 µM
[3]
  GI50: 1230 nM
  TGI: 5.9 µM
[4]
  GI50: 138 nM
  TGI: > 100 µM
[5]
  GI50: 94.8 nM
  TGI: 526 nM
[6]
  GI50: 226 nM
  TGI: 10.2 µM
[7]
  GI50: 93 nM
  TGI: 13.8 µM
[8]
  GI50: 139 nM
  TGI: > 100 µM
[9]
  GI50: 352 nM
  TGI: 2010 nM
[10]
  GI50: 236 nM
  TGI: 1130 nM
[11]
  GI50: 720 nM
  TGI: 3.72 µM
[12]
  GI50: 1180 nM
  TGI: > 100 µM
[13]
  GI50: 226 nM
  TGI: 1700 nM
[14]
  GI50: 480 nM
  TGI: 28.7 µM
[15]
  GI50: 428 nM
  TGI: 10.8 µM
[16]
  GI50: 184 nM
  TGI: 1080 nM
[17]
  GI50: 398 nM
  TGI: 1840 nM
[18]
  GI50: 99.9 nM
  TGI: > 100 µM
[19]
  GI50: 602 nM
  TGI: > 100 µM
[20]
  GI50: 145 nM
  TGI: 1380 nM
[21]
  GI50: 160 nM
  TGI: 4.47 µM
[22]
  GI50: 224 nM
  TGI: 1770 nM
[23]
  GI50: 478 nM
  TGI: 3.12 µM
[24]
  GI50: 1110 nM
  TGI: 17.5 µM
[25]
  GI50: 82.2 nM
  TGI: 1170 nM
[26]
  GI50: 98.7 nM
  TGI: 2710 nM
[27]
  GI50: 325 nM
  TGI: > 100 µM
[28]
  GI50: 269 nM
  TGI: > 100 µM
[29]
  GI50: 416 nM
  TGI: 3.19 µM
[30]
  GI50: 358 nM
[31]
  GI50: 74.3 nM
  TGI: 1680 nM
[32]
  GI50: 197 nM
  TGI: 1240 nM
[33]
  GI50: 223 nM
  TGI: 2310 nM
[34]
  GI50: 197 nM
  TGI: 2290 nM
[35]
  GI50: 259 nM
  TGI: > 100 µM
[36]
  GI50: 304 nM
  TGI: 1710 nM
[37]
  GI50: 1060 nM
  TGI: 9.8 µM
[38]
  GI50: 245 nM
  TGI: 985 nM
[39]
  GI50: 282 nM
  TGI: 2750 nM
[40]
  GI50: 715 nM
  TGI: 26 µM
[41]
  GI50: 300 nM
  TGI: 2970 nM
[42]
  GI50: 1360 nM
  TGI: 88.2 µM
[43]
  GI50: 1320 nM
  TGI: 11.5 µM
[44]
  GI50: 2710 nM
  TGI: 42.6 µM
[45]
  GI50: 329 nM
  TGI: 25.2 µM
[46]
  GI50: 94.1 nM
  TGI: 2290 nM
[47]
  GI50: 527 nM
  TGI: 12.3 µM
[48]
  GI50: 202 nM
  TGI: 60.9 µM
[49]
  GI50: 616 nM
  TGI: 13.4 µM
[50]
  GI50: 700 nM
  TGI: > 100 µM
[51]
  GI50: 296 nM
  TGI: 1810 nM
[52]
  GI50: 292 nM
  TGI: 2110 nM
[53]
  GI50: 491 nM
  TGI: > 100 µM
[54]
  GI50: 407 nM
  TGI: 13.9 µM
[55]
  GI50: 66.4 nM
  TGI: 1150 nM
[56]
  GI50: 130 nM
  TGI: 695 nM
[57]
  GI50: 733 nM
  TGI: 4.85 µM
